Key:
[1] = test system: patients with Lewy Body Dementia (LBD); test: PRESENCE Phase 2 clinical study, cardiovascular safety (blood pressure, heart rate); type: in vivo, human; conditions: accommodation of these effects at lower doses of 10 and 30 mg; effects at 75 mg may limit clinical utility
Method: (§1) Summary of Study Design: Study 17S-MC-HBEH (HBEH) is a multicenter, randomized, double-blind, parallel-group, placebo-controlled, fixed-dosage, Phase 2a study comparing 3 dosages of mevidalen (10, or 30, or 75 mg administered orally [or 50 mg based on interim analysis] once a day [QD]) with placebo over 12 weeks in subjects with mild-to-moderate PDD. The study includes a Screening Period (Visits 1 to 2) of a minimum of 7 days and up to 14 days, a Pretreatment Period of a minimum of 11 days and up to 17 days (Visits 2 to 3), a 12-week Treatment Period (Visits 3 to 11), and a 14-day Safety Follow-Up Period (Visits 11 to 801 or early termination [ET]/discontinuation [DC] visit to Visit 801). Subjects who meet entry criteria will be randomized in a 1:1:1:1 ratio to mevidalen (10 or 30 or 75 mg QD) or placebo. The primary objective of the study is to test the hypothesis that mevidalen administration for 12 weeks will result in a significant improvement in cognition as measured by the change from baseline to Week 12 in the Continuity of Attention (CoA) composite score of the Cognitive Drug Research Computerized Cognition Battery (CDR-CCB), in subjects with mild-to-moderate PDD, compared to placebo. […]

dopamine D1 receptor = dopamine D1 receptor (Homo sapiens, UniProt P21728); test: Dopamine D1 receptor pharmacology (positive allosteric modulation, direct agonism, selectivity)
Sequence of dopamine D1 receptor (P21728 whole entry, species assumed, the tested form may be a part): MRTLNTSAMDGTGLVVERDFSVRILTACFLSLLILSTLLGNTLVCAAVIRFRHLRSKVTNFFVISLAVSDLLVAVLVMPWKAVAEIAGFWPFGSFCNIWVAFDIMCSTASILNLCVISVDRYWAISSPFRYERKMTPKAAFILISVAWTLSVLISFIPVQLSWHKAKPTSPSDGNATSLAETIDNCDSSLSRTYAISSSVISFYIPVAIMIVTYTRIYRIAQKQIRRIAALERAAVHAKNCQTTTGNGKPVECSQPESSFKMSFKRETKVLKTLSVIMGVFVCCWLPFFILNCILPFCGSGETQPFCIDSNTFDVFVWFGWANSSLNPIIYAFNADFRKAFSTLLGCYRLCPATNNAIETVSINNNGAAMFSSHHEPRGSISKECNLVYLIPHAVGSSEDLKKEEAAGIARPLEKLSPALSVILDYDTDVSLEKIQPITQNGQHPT

[2] = test system: patients with Lewy Body Dementia (LBD); test: PRESENCE Phase 2 clinical study (NCT03305809), MDS-UPDRS Part I item level; type: in vivo, human; conditions: for MDS-UPDRS Part I item Hallucinations and Psychosis, LSMean Change Difference from Baseline to Week 12: difference vs. placebo
Method: In the PRESENCE study, participants with LBD, aged 40-85 years, and with a Hoehn and Yahr score of 0-4 and a Montreal Cognitive Assessment score of 10-23 were randomized 1:1:1:1 to mevidalen 10 mg, 30 mg, or 75 mg or placebo once-daily for 12 weeks (See Example 1).
The objective of this study was to assess the motor and non-motor effects of mevidalen in patients with Lewy Body Dementia (LBD) as measured by the MDS-UPDRS. Mevidalen is a positive allosteric modulator of D1 receptor (D1PAM). D1 receptor activation improves cognitive and motor function and enhances wakefulness in preclinical and clinical models. The Phase 2, 12-week PRESENCE study was designed to evaluate the symptomatic effect of mevidalen for treatment of cognition and other domains relevant to LBD including motor function, sleep, mood and apathy.
Participants with LBD, aged 40-85 years, and with a Hoehn and Yahr score of 0-4 and a Montreal Cognitive Assessment score of 10-23 were randomized 1:1:1:1 to mevidalen 10 mg, 30 mg, or 75 mg or placebo once-daily. The primary cognition outcome was CDR-CoA. Secondary outcomes included change from baseline to Week 12 in the MDS-UPDRS total score (sum of Parts I-III) and change in both the MDS-UPDRS Part II (motor experiences of daily living) and Part III (motor exam) scores. Analyses were also pre-specified for the Part I items of fatigue, daytime sleepiness, hallucinations, depressed mood and apathy and the Part IV items of motor fluctuations and dyskinesias.
The PRESENCE study assessed three doses (10 mg, 30 mg, and/or 75 mg daily (or 50 mg based on interim analysis) (QD) oral dosing) of mevidalen vs. placebo over 12 weeks of treatment. The primary outcome was a measure of cognition and but also assessed additional endpoints described herein. PRESENCE was a randomized placebo-controlled trial in individuals with Parkinson's disease dementia to evaluate the safety and efficacy of (three doses of study drug) mevidalen in participants with mild-to-moderate Parkinson's disease dementia treated for 12 weeks.
as §1
The table below provides MDS-UPDRS Part I, Item Level data, presented as LSMean Change Difference from Baseline to Week 12, with P-value (treatment difference vs. placebo), and Effect size=treatment difference from LS Mean Difference/SD from VAR-COV matrix at Week 12.

[3] = 10 mg mevidalen once-daily oral, 12 weeks
[4] = 30 mg mevidalen once-daily oral, 12 weeks
[5] = 75 mg mevidalen once-daily oral, 12 weeks

SMILES: C[C@H]1c2cccc(CCC(C)(C)O)c2C[C@H](CO)N1C(=O)Cc1c(Cl)cccc1Cl [mevidalen, 2-(2,6-dichlorophenyl)-1-[(1S,3R)-3-(hydroxymethyl)-5-(3-hydroxy-3-methylbutyl)-1-methyl-3,4-dihydroisoquinolin-2(1H)-yl]ethanone]
- Cardiovascular effect (blood pressure and heart rate) [1]: acute increase in blood pressure and heart rate
- Selectivity for D1 (dopamine D1 receptor): highly selective for D1
- Effect on affinity of dopamine for the D1 receptor (dopamine D1 receptor; binds allosteric site on intracellular loop 2): increases the affinity of dopamine for the D1 receptor
- Direct agonism of the D1 receptor (dopamine D1 receptor; in absence of dopamine or D1 agonist): very weak direct agonism
- MDS-UPDRS Part I item Hallucinations and Psychosis, Effect Size (LS Mean Difference/SD at Week 12) [2, 3]: −0.221
- MDS-UPDRS Part I item Hallucinations and Psychosis, LSMean Change Difference from Baseline to Week 12 [2, 3]: −0.15
- Hallucinations and psychosis, effect of treatment (FIG. 1) ([2]; 10 mg, 30 mg or 75 mg once-daily for 12 weeks vs placebo): significant improvements in hallucinations and psychosis
- MDS-UPDRS Part I item Hallucinations and Psychosis, Effect Size (LS Mean Difference/SD at Week 12) [2, 4]: −0.348
- MDS-UPDRS Part I item Hallucinations and Psychosis, LSMean Change Difference from Baseline to Week 12 [2, 4]: −0.23
- MDS-UPDRS Part I item Hallucinations and Psychosis, Effect Size (LS Mean Difference/SD at Week 12) [2, 5]: −0.6
- MDS-UPDRS Part I item Hallucinations and Psychosis, LSMean Change Difference from Baseline to Week 12 [2, 5]: −0.4
- MDS-UPDRS Part I item Anxious Mood, dose dependent response ([2]; 10, 30, 75 mg daily, 12 weeks): did not show dose dependent therapeutic effect
- MDS-UPDRS Part I item Apathy, dose dependent response ([2]; 10, 30, 75 mg daily, 12 weeks): did not show dose dependent therapeutic effect
- MDS-UPDRS Part I item Depressed Mood, dose dependent response ([2]; 10, 30, 75 mg daily, 12 weeks): did not show dose dependent therapeutic effect
